Reference: patent publication US8993786B2, “Crystalline fosamprenavir calcium and process for the preparation thereof” (Mylan Laboratories Ltd., priority 2011, dated 2015)

What was measured:
[1] = cited from earlier work
[2] = tested on: HIV aspartyl protease; settings: cited from earlier work
[3] = Storage stability of Form A: polymorph by PXRD; format: physicochemical
[4] = Transformation kinetics: slurry in solvents, PXRD; format: physicochemical; settings: 25-30° C., 15 h
Source text: The solid samples were characterized by PXRD.

[5] = Storage stability of Form A: HPLC purity
Description: In yet another embodiment, physical and chemical stability of Fosamprenavir calcium Form A was determined by storing the samples at 40° C./75% relative humidity (RH), at 25° C./60% RH and at 5° C. for 6 months. The material was analyzed by PXRD, water content by Karl Fischer and HPLC for final purity.

[6] = Storage stability of Form A: water content by Karl Fischer; format: physicochemical
Description: Water content was determined on Metrohm karl-Fischer titrator (Model: 794 Basic Titrino) using pyridine free single solution (Merck, Mumbai) with sample mass between 450-550 mg.

[7] = Physical stability under drying (vacuum) and 90% RH, PXRD
Description: The said formic acid solvate of the present invention is characterized by their X-ray powder diffraction pattern. Thus, the X-ray diffraction patterns of said polymorphs of the invention were measured on Bruker AXS D8 Discover powder X-ray diffractometer equipped with a goniometer of θ/2θ configuration, Variol monochromator and Lynx-Eye detector. The Cu-anode X-ray tube was operated at 40 kV and 30 mA. The experiments were conducted over the 2θ range of 2.0°-50.0°, 0.030° step size and 25 seconds step time.
In yet another embodiment, the physical stability of Fosamprenavir calcium Form A was determined by storing 1.0 g of sample at 50° C. and 80° C. under vacuum and at 90% relative humidity (RH). The samples are tested by PXRD after 15 hours and 72 hours. […] Transformation kinetics of Form A was studied by suspending 1 g of Form A in appropriate solvents at 25-30° C. for 15 hours. The solid samples were characterized by PXRD.

[8] = stored for 6 months at the stress conditions of table 1

## CC(C)CN(C[C@@H](OP(=O)([O-])[O-])[C@H](Cc1ccccc1)NC(=O)O[C@H]1CCOC1)S(=O)(=O)c1ccc(N)cc1.[Ca+2] [Fosamprenavir Calcium, Calcium (3S) tetrahydro-3-furanyl (1S,2R)-3-[[(4-aminophenyl)sulfonyl](isobutyl)amino]-1-benzyl-2-(phosphonooxy)propylcarbamate]
[1]; pH range of the gastro-intestinal tract
  Solubility compared to amprenavir: increased solubility
[2]
  HIV aspartyl protease inhibitory activity: has HIV aspartyl protease inhibitory activity

## CC(C)CN(C[C@@H](OP(=O)([O-])[O-])[C@H](Cc1ccccc1)NC(=O)O[C@H]1CCOC1)S(=O)(=O)c1ccc(N)cc1.[Ca+2] [Fosamprenavir calcium Form A, Calcium (3S) tetrahydro-3-furanyl (1S,2R)-3-[[(4-aminophenyl)sulfonyl](isobutyl)amino]-1-benzyl-2-(phosphonooxy)propylcarbamate]
[3]; at 5° C., 1st Month
  PXRD: Form A
[3]; at 5° C., 2nd Month
  PXRD: Form A
[3]; at 5° C., 3rd Month
  PXRD: Form A
[3]; at 5° C., 6th Month
  PXRD: Form A
[3]; at 5° C., 15 days
  PXRD: Form A
[3]; at 5° C., Initial
  PXRD: Form A
[3]; at 25° C./60% RH, 1st Month
  PXRD: Form A
[3]; at 25° C./60% RH, 2nd Month
  PXRD: Form A
[3]; at 25° C./60% RH, 3rd Month
  PXRD: Form A
[3]; at 25° C./60% RH, 6th Month
  PXRD: Form A
[3]; at 25° C./60% RH, 15 days
  PXRD: Form A
[3]; at 25° C./60% RH, Initial
  PXRD: Form A
[3]; at 40° C./75% RH, 1st Month
  PXRD: Form A
[3]; at 40° C./75% RH, 2nd Month
  PXRD: Form A
[3]; at 40° C./75% RH, 3rd Month
  PXRD: Form A
[3]; at 40° C./75% RH, 6th Month
  PXRD: Form A
[3]; at 40° C./75% RH, 15 days
  PXRD: Form A
[3]; at 40° C./75% RH, Initial
  PXRD: Form A
[3]; [8]
  Change in PXRD pattern on storage: no change in PXRD pattern
[4]; Slurry in IPE
  Result (polymorph by PXRD): Form A
[4]; Slurry in acetone
  Result (polymorph by PXRD): Form A
[4]; Slurry in ethyl acetate
  Result (polymorph by PXRD): Form A
[4]; Slurry in n-Heptane
  Result (polymorph by PXRD): Form A
[5]; at 5° C., 1st Month
  HPLC purity (%): 99.85%
[5]; at 5° C., 2nd Month
  HPLC purity (%): 99.86%
[5]; at 5° C., 3rd Month
  HPLC purity (%): 99.86%
[5]; at 5° C., 6th Month
  HPLC purity (%): 99.86%
[5]; at 5° C., 15 days
  HPLC purity (%): 99.85%
[5]; at 5° C., Initial
  HPLC purity (%): 99.85%
[5]; at 25° C./60% RH, 1st Month
  HPLC purity (%): 99.85%
[5]; at 25° C./60% RH, 2nd Month
  HPLC purity (%): 99.86%
[5]; at 25° C./60% RH, 3rd Month
  HPLC purity (%): 99.87%
[5]; at 25° C./60% RH, 6th Month
  HPLC purity (%): 99.85%
[5]; at 25° C./60% RH, 15 days
  HPLC purity (%): 99.85%
[5]; at 25° C./60% RH, Initial
  HPLC purity (%): 99.85%
[5]; at 40° C./75% RH, 1st Month
  HPLC purity (%): 99.85%
[5]; at 40° C./75% RH, 2nd Month
  HPLC purity (%): 99.85%
[5]; at 40° C./75% RH, 3rd Month
  HPLC purity (%): 99.86%
[5]; at 40° C./75% RH, 6th Month
  HPLC purity (%): 99.86%
[5]; at 40° C./75% RH, 15 days
  HPLC purity (%): 99.84%
[5]; at 40° C./75% RH, Initial
  HPLC purity (%): 99.85%
[5]; [8]
  Degradation on storage: no significant degradation
[6]; at 5° C., 1st Month
  Water content (% w/w): 3.5 % w/w
[6]; at 5° C., 2nd Month
  Water content (% w/w): 4.4 % w/w
[6]; at 5° C., 3rd Month
  Water content (% w/w): 4.0 % w/w
[6]; at 5° C., 6th Month
  Water content (% w/w): 3.5 % w/w
[6]; at 5° C., 15 days
  Water content (% w/w): 3.6 % w/w
[6]; at 5° C., Initial
  Water content (% w/w): 4.2 % w/w
[6]; at 25° C./60% RH, 1st Month
  Water content (% w/w): 3.6 % w/w
[6]; at 25° C./60% RH, 2nd Month
  Water content (% w/w): 3.7 % w/w
[6]; at 25° C./60% RH, 3rd Month
  Water content (% w/w): 3.9 % w/w
[6]; at 25° C./60% RH, 6th Month
  Water content (% w/w): 3.5 % w/w
[6]; at 25° C./60% RH, 15 days
  Water content (% w/w): 3.7 % w/w
[6]; at 25° C./60% RH, Initial
  Water content (% w/w): 4.2 % w/w
[6]; at 40° C./75% RH, 1st Month
  Water content (% w/w): 3.5 % w/w
[6]; at 40° C./75% RH, 2nd Month
  Water content (% w/w): 3.9 % w/w
[6]; at 40° C./75% RH, 3rd Month
  Water content (% w/w): 3.8 % w/w
[6]; at 40° C./75% RH, 6th Month
  Water content (% w/w): 3.0 % w/w
[6]; at 40° C./75% RH, 15 days
  Water content (% w/w): 3.5 % w/w
[6]; at 40° C./75% RH, Initial
  Water content (% w/w): 4.2 % w/w
[6]; [8]
  Change in moisture content on storage: no substantial increase in moisture content
[7]; 50° C. and 80° C. under vacuum and 90% RH, after 15 hours and 72 hours
  Change in polymorph: no change in polymorph
[7]; 90% RH, 15 h
  Result (polymorph by PXRD): Form A
[7]; 90% RH, 72 h
  Result (polymorph by PXRD): Form A
[7]; Drying at 50° C. under vacuum, 15 h
  Result (polymorph by PXRD): Form A
[7]; Drying at 50° C. under vacuum, 72 h
  Result (polymorph by PXRD): Form A
[7]; Drying at 80° C. under vacuum, 15 h
  Result (polymorph by PXRD): Form A
[7]; Drying at 80° C. under vacuum, 72 h
  Result (polymorph by PXRD): Form A
[7]; different stress conditions (Table 2)
  Physical stability: physically stable

## CC(C)CN(C[C@@H](O)[C@H](Cc1ccccc1)NC(=O)O[C@H]1CCOC1)S(=O)(=O)c1ccc(N)cc1 (relative stereo) [Amprenavir, [3S-[3R*(1R*,2S*)]]-[3-[[(4-aminophenyl)sulfonyl](2-methyl-propyl)amino]-2-hydroxy-1-phenylmethyl)propyl]-tetrahydro-3-furanyl ester]
[1]
  Solubility: poor solubility
